The numbers were not newly measured in US8828946B2, “Composition comprising interleukin-1 receptor antagonist and corticosteroid” (Orthogen AG, priority 2009, dated 2014), which cites them from elsewhere.

Data set [1] concerns moderate knee osteoarthritis ab degree II-III. The following applies: Case III; injections into the knee in the past (patient history).
In data set [2] the test system is medial knee osteoarthritis ri degree IV and retropatellar. The following applies: Case V; injections in the past (patient history).
For a further data set, the system named is impingement le shoulder. As to conditions: Case IV; previous injections (patient history).
For a further data set, the system named is low facet arthrosis. As to conditions: Case VII; in-patient injections into the low facets (patient history).
Data set [3] relates to moderate rhizarthrosis ri. As to conditions: Case II; injections in the past (patient history).
In data set [4] the test system is partial rotator cuff rupture and subacromial constriction with complete shoulder stiffness le. As to conditions: Case IX; numerous injections into the left shoulder (patient history).

hyaluronic acid: the “outcome of previous treatment” value in data set [1] is “unsuccessful”; in data set [2], “without clinical success”.

As to `C[C@]12CCC(=O)C=C1CC[C@@H]1[C@@H]2C(=O)C[C@@]2(C)[C@H]1CC[C@]2(O)C(=O)CO` [cortisone], the “outcome of previous treatment” value is on record as “without success” in the data set on impingement le shoulder; “unsuccessful” in data set [1]; “without success” with low facet arthrosis; “without success” in data set [3]; “without clinical success” in data set [2]; “without success” in data set [4].

Turning to Anakinra, in the data set on osteoarthritis (Anakinra alone), the “effect in the treatment of osteoarthritis and degenerative spinal diseases” value was “does not show any effect”. For the same compound, the “effect in the treatment of osteoarthritis” value in the data set with osteoarthritis (alone, compared to a placebo treatment) is recorded as “did not show any effects”.
